Assay results: patent US9353152B2, “Induction of the mitochondrial permeability transition” (NewSouth Innovations Pty Limited, priority 2002, dated 2016)
pIC50: −log10 of the molar value. Where “and” joins values, the source holds several entries; their conditions need not be identical. Equal entries are not always repeated. Where two headings read alike, the source gives them in different places.

How the values were obtained:
BAE cells [1] = conditions: read-out: IC50 (μM)*
[2] = Tolerability in tumour-bearing mice; assay type: in vivo, SCID or C57Bl6/J mice
Description: (§1) Female 7 to 9 week old SCID or C57Bl6/J mice were used (Massachusetts General Hospital, Boston, Mass.). Mice were held in groups of 3 to 5 at a 12 hour day and night cycle and were given animal chow and water ad libidum. SCID or C57Bl6/J mice were anaesthetised by inhalation of isoflurane, the dorsal skin shaved and cleaned with ethanol, and a suspension of 2.5×10^6 BxPC-3, HT1080 or LLC cells in 0.2 mL of PBS, or saline for LLC cells, was injected S.C. in the proximal midline. LLC cells were prepared according to O'Reilly et al. (1997). Tumour volume was calculated using the relationship, a·b^2·0.52, where a is the longest and b the shortest diameter.

BAE cells [3] = assay type: cell-based, bovine
BAE cells [4] = assay: Cell viability assay, attached cells (methylene blue), proliferating or growth-quiescent cells; assay type: cell-based, bovine
Description: BAE or HMEC-1 cells were seeded at a density of 10^4 cells per cell into 96 well plates and allowed to adhere overnight and then treated as indicated.

BAE cells [5] = assay: Mitochondrial mass (nonyl acridine orange uptake); assay type: cell-based, bovine; conditions: GSAO treatment 24 h, proliferating and growth-quiescent cells
Description: For measurements of superoxide levels with dihydroethidine, mitochondrial membrane potential with JC-1, mitochondrial mass with nonyl acridine orange, and apoptosis with annexin V, proliferating or growth-quiescent BAE cells were treated for 24 or 48 h with GSAO in six-well culture plates, then detached with trypsin/EDTA, washed once, and resuspended at 2×10^6 cells per mL in serum-free medium. Cells were then incubated for 15 min at room temperature with dihydroethidine (5 μM, Molecular Probes) or 30 min at room temperature with JC-1 (0.5 μg·mL^−1, Molecular Probes), annexin V-FITC (50 μl·mL^−1) (Pharmingen, La Jolla, Calif., USA), or acridine orange 10-nonyl bromide (5 μM, Molecular Probes). Cells were then washed once, resuspended in 0.5 mL serum-free medium, transferred to ice, and fluorescence was quantitated immediately by flow cytometry.

[6] = test system: HDMVE (human dermal endothelial); assay: Proliferation arrest and loss of viability (cell number and propidium iodide, flow cytometry); assay type: cell-based; conditions: 48 h
Description: (§2) To distinguish between the anti-proliferative and pro-apoptotic effects of GSAO, treated cells were stained with propidium iodide (PI) to detect late-apoptotic or dead cells. The total number of cells and the proportion of cells that were PI-positive following 48 h treatment with GSAO were measured by flow cytometry.

[7] = test system: A549 (human lung carcinoma); assay: as above; assay type: cell-based; conditions: A549, 48 h
Description: as §2

[8] = test system: LLC (murine lung carcinoma); assay: as above; assay type: cell-based; conditions: 48 h
Description: as §2

[9] = test system: HT1080 (human fibrosarcoma); assay: as above; assay type: cell-based; conditions: HT1080, 48 h
Description: as §2

[10] = test system: BAE (bovine aortic endothelial); assay: as above; assay type: cell-based; conditions: 48 h
Description: as §2

[11] = test system: BxPC-3 (human pancreatic carcinoma); assay: as above; assay type: cell-based; conditions: for pIC50: BxPC-3, 48 h
Description: as §2

[12] = test system: HL60 (human erythroid leukaemia); assay: as above; assay type: cell-based; conditions: HL60, 48 h
Description: as §2

CAM angiogenesis = assay: Chick chorioallantoic membrane (CAM) angiogenesis assay; assay type: in vivo; conditions: 5, 10 or 50 μg per pellet, 48 h
Description: Fertilised 3 day-old white Leghorn eggs (Spafas, Norwich, Conn.) were cracked, the embryos with intact yolks placed in 20×100 mm petri dishes and incubated for 3 days at 37° C. and 3% CO2 (Folkman, 1985). Methylcellulose (Fisher Scientific, Fair Lawn, N.J.) discs containing 5, 10 or 50 μg of either GSAA or GSAO were then applied to the CAM of individual embryos and incubated for 48 h at 37° C. and 3% CO2. The discs were made by desiccation of GSAA or GSAO in 10 μl of 0.45% methycellulose on teflon rods. The CAMs were observed using a stereomicroscope and scored for no obvious affect or inhibition of CAM angiogenesis as defined by avascular zones. On some occasions CAM blood vessels were injected with India ink and photographed.

BAE cells [13] = assay: ATP assay (luciferin/luciferase); assay type: cell-based, bovine; conditions: 150 μM GSAO, 24 h
Description: BAE cells in six-well culture plates were arrested for 24 h in 0.5% serum or left in 10% serum, then treated for 24 h with 0, 60 or 150 μM GSAO. The cells were washed once then resuspended in 0.4 mL PBS containing 0.3% bovine serum albumin. A 50 μl sample of cells was mixed with 50 μL water and 100 μL ATP releasing agent (Sigma) and ATP concentration was measured using a luciferin/luciferase ATP assay mix (Sigma). Light units were converted to ATP concentrations using an ATP standard in place of the 50 μL water. Cell number was counted using a Beckman Coulter Counter and mol of ATP was expressed per million cells.

BxPC-3 tumours = assay: Primary tumour growth assay; assay type: in vivo, SCID mice; conditions: 10 mg/kg/day s.c., SCID mice, BxPC-3
Description: as §1

[14] = read-out: Loss of Viability IC50
[15] = read-out: Proliferation Arrest IC50

With `N[C@@H](CCC(=O)N[C@@H](CSCC(=O)Nc1ccc([As]=O)cc1)C(=O)NCC(=O)O)C(=O)O` (some centres unmarked) [GSAO, 4-(N—(S-glutathionylacetyl)amino)-phenylarsenoxide] as the compound, how does the IC50 (BAE cells [1]) read?
Its IC50 is 8.28 µM.

And the “adverse affects of administration” value ([2]; 10 mg/kg/day s.c.)?
Its value is “no apparent adverse affects”.

And the “morphological changes in the heart, lungs, liver, kidneys, and spleen” value ([2]; 10 mg/kg/day s.c.)?
Its value is “no morphological changes”.

What about the “average mice weights over the course of the experiments” value ([2]; GSAO versus GSAA treatment groups) of the same compound?
Its value is “the same”.

And the “cellular levels of O2^− versus concentration” value (BAE cells [3])?
The value was “increased linearly with GSAO concentration in proliferating, but not growth-quiescent, BAE cells”.

And the “decrease in H2O2” value (BAE cells [3])?
The value was 30%.

What about the “increase in the level of O2^−” value (BAE cells [3]) of the same compound?
The value was 100%.

And the “effect on viability of growth-quiescent BAE cells” value (BAE cells [4])?
Its value is “little effect”.

What about the mitochondrial mass (BAE cells [5]) of the same compound?
Its mitochondrial mass is “unchanged”.

And the pIC50 [6, 14]?
The pIC50 was ~4.46 and 4.46.

What about the pIC50 [6, 15] of the same compound?
The pIC50 was ~4.82 and 4.82.

And the pIC50 [7, 14]?
The pIC50 was 3.82.

And the pIC50 [7, 15]?
The pIC50 was 4.10.

And the pIC50 [8]?
Its pIC50 is 3.85.

What about the pIC50 [9, 14] of the same compound?
The pIC50 was 3.89.

And the pIC50 [9, 15]?
Its pIC50 is 4.02.

What about the pIC50 [10, 14] of the same compound?
The pIC50 was ~4.12 and 4.12.

What about the pIC50 [10, 15] of the same compound?
The pIC50 was ~5.00 and 5.00.

What about the pIC50 [11, 14] of the same compound?
The pIC50 was < 3.49.

What about the pIC50 [11, 15] of the same compound?
Its pIC50 is < 3.49.

What about the “concentration without effect on BxPC-3 proliferation relative to endothelial proliferation arrest” value ([11]; Table 1) of the same compound?
Its value is > 30 fold.

And the pIC50 [12, 14]?
Its pIC50 is 3.85.

And the pIC50 [12, 15]?
Its pIC50 is 4.30.

What about the “inhibition of CAM angiogenesis (avascular zones)” value (CAM angiogenesis) of the same compound?
Its value is “inhibited CAM angiogenesis in a concentration-dependent manner”.

What about the “cellular ATP levels in proliferating BAE cells” value (BAE cells [13]) of the same compound?
The value was “reduced ATP levels in proliferating cells to that of growth-quiescent cells”.

What about the “inhibition of the rate of tumour growth” value (BxPC-3 tumours) of the same compound?
The value was > 90%.
